In patent publication US11904037B2, “Enzymatic molecule mimicking anti-oxidant activity” (BIONUCLEI, priority 2018, dated 2024):

Test: ABTS degradation, comparison with tocopherol after dark or UV exposure
Details: colloids 0.5 g/L, tocopherol 1.5 g/L
Protocol: The protocol for preparing the solutions as in point 4.1/ was repeated with a concentration of ZnO/3-hydroxybenzaldehyde colloids of 0.5 g/L and a concentration of tocopherol of 1.5 g/L.
The solutions obtained were separated: a fraction of the solution being placed in the dark, and the remaining fraction being placed under UV irradiation. After 30 minutes of exposure (to the dark or to UV), 30 μL of a concentrated solution of ABTS (7 mM) was added, and the absorption was then measured.

Substance tocopherol has an ABTS degradation capacity (after 30 minutes of exposure to UV) of 22% and an ABTS degradation capacity (after 30 minutes of exposure to the dark) of 22%.
